Measurements as given in the METLIN SMRT retention time set (Domingo-Almenara et al. 2019).

test: gradient 5% acetonitrile 3 min, to 50% in 2 min, to 85% in 15 min, held 3 min, 100 µL/min; settings: column: Zorbax Extend-C18 2.1 x 50 mm; eluents: water / acetonitrile, 0.1% formic acid
Outline: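 Each retention time is based on an adduct peak selected computationally and verified by manual inspection. Measurements used HPLC–quadrupole time-of-flight mass spectrometry in positive and negative ionization mode on mixtures of ~100 pure standards. Chromatography ran on a Zorbax Extend-C18 column (2.1 × 50 mm, 1.8 μm) at 100 μL/min with water and acetonitrile, each containing 0.1% formic acid, and dead and dwell volumes of 40 μL and 900 μL.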

| SMILES | RP-LC retention time |
| --- | --- |
| Cc1ccc(C)c(S(=O)(=O)N2C[C@@H](F)C[C@H]2C(=O)N2CCCCC2)c1 | 856 s |
| CCC(=O)N1CCc2ccccc2C1C(=O)NCc1ccc(SC)cc1 (stereo not given) | 853 s |
| c1cnc2c(c1)ccc1ncccc12 | 674 s |
| COc1cccc(S(=O)(=O)N2C[C@@H](F)C[C@H]2C(=O)N2CCc3ccccc3C2)c1 | 904 s |
| Cc1ccc(C)c(NC(=O)Cn2nc3c(Oc4ccccc4C)nccn3c2=O)c1 | 908 s |
| CCOC(=O)C1CCN(c2ncc(C(=O)Nc3ccc(OC)cc3)c(N)n2)CC1 | 698 s |
| Cc1ccc(-n2c(=O)c3c(cc(C)n3C)n(CC(=O)Nc3ccccc3Cl)c2=O)cc1 | 900 s |
| COc1ccc(-c2nnc(-c3ccc(C)c(S(=O)(=O)N4CCCC4)c3)o2)cc1 | 1030 s |
| CC(C)(C)NC(=O)Cn1ccn2nc(-c3ccccc3)c(CO)c2c1=O | 721 s |
| Cc1ccc(CN(C)C(=O)NC(C)C)s1 | 804 s |
| CCn1cc(CCN2CCN(S(=O)(=O)c3cc(C)cc(C)c3)CC2)c2cccnc21 | 698 s |
| CCOC(=O)c1c(S(=O)(=O)N2CCC(C(=O)Nc3ncccc3C)CC2)c(C)n(C)c1C | 632 s |
| CCCN1CCCCc2cc(C(=O)NC(C)(C)C)sc21 | 1200 s |
| Cc1nnc2cc(N3CCN(C(=O)Nc4ccc5c(c4)OCCO5)CC3)cnn12 | 595 s |
| CCOC(=O)c1[nH]c(C)c(CCC(=O)N2CCC(C(=O)NCc3ccc(C)o3)CC2)c1C | 739 s |
| Cc1nc(-c2ccc(N3CCN(C(=O)c4ccccc4F)CC3)nc2)sc1C | 873 s |
| O=C1NC2(CCN(C(=O)c3ccccc3F)CC2)Nc2c(Cl)cccc21 | 742 s |
| CCOC(=O)N1CCC(NC(=O)C2CCCN(Cc3nc(-c4cccnc4)no3)C2)CC1 (stereo not given) | 559 s |
| C#CCSc1nc2ccccc2c2nc(-c3ccncc3)nn12 | 977 s |
| Cc1cc(C)c2c(N3CCCCC3)nc(C(=O)N3CCC(C)CC3)nc2n1 | 698 s |
| COc1ccc(NC(=O)N2C[C@@H](F)C[C@H]2C(=O)N2CCCCC2)cc1 | 664 s |
| Cn1nccc1C(=O)N1CCC(c2nc(-c3ccccc3)no2)C1 (stereo not given) | 779 s |
| Cc1cccc(S(=O)(=O)N2CC3CN(C(=O)C4CCCO4)CC(C2)O3)c1 (stereo not given) | 688 s |

| SMILES | RP-LC retention time |
| --- | --- |
| Fc1ccccc1CN1CCc2nc(N3CCN(c4ccccc4F)CC3)ncc2C1 | 771 s |
| COc1cccc(/C=C/c2nccc3ccccc23)c1OC | 768 s |
| Cc1cccc(C)c1NS(=O)(=O)c1cc(-c2cc(C(F)(F)F)on2)sc1C | 1230 s |
| CCc1nnc(-c2ccc3ccn(CC(=O)NCc4cc(OC)c(OC)c(OC)c4)c3c2)o1 | 760 s |
| Cc1ccc(N2C(=O)C3N=NN(Cc4nc(-c5ccc(C)c(C)c5)no4)C3C2=O)cc1 (stereo not given) | 1110 s |
| O=C(CCc1c(-c2ccc(F)cc2)nc2ccccn12)Nc1cccc(Cl)c1 | 730 s |
| Cc1c(Cl)cccc1NC(=O)Cn1c(C)nc2onc(C)c2c1=O | 817 s |
| COc1ccc(-c2csc(Nc3cccc(C)n3)n2)cc1 | 821 s |
| CCN(C(=O)c1nc(N2CCOCC2)c2cnn(C)c2n1)c1ccccc1 | 693 s |
| Cc1nc2c(NC(=O)COc3ccc(F)c(F)c3)cccn2n1 | 818 s |
| COc1cccc(NS(=O)(=O)c2cc3n(c2)CCCNC3=O)c1 | 632 s |
| CC1(C(=O)NCc2ccccc2)CN(S(=O)(=O)c2ccccc2)CC(=O)N1C1CCCCC1 (stereo not given) | 992 s |
| O=C(NCCOc1ccc(-c2ccccn2)nn1)c1cccs1 | 586 s |
| Cc1cc(C(F)F)n2nc(C(=O)Nc3ccc(C(C)C)cc3)nc2n1 | 952 s |
| CCCSc1nnc(NC(=O)c2c(-c3ccccc3Cl)noc2C)s1 | 956 s |
| CC(C)Cc1nc(N2CCN(C(=O)c3ccco3)CC2)c(C#N)c2c1COC(C)(C)C2 | 1180 s |
| CCC(C)NC(=O)Cn1ccc2ccc(-c3nnc(C)o3)cc21 (stereo not given) | 713 s |
| C=C1C[C@@]23CC[C@H]4[C@@](C)(CCC[C@@]4(C)C(=O)O)[C@@H]2CC[C@]1(O)C3 | 1030 s |
| Cc1noc(-c2cccc(OC3CN(C(=O)Cc4ccsc4)C3)c2)n1 | 857 s |
| CSc1ccc(-c2noc(CN3C(=O)COc4ccccc43)n2)cc1 | 1110 s |
| Cc1cc(C)cc(N2CCC(N)C2=O)c1 (stereo not given) | 605 s |
| Cc1cccc(CN2CCN(C3CCN(C(=O)Nc4ccc5c(c4)OCCO5)CC3)C2=O)c1 | 804 s |
| Cc1ccc(NC(=O)N2CCC(c3cc(N)on3)CC2)cc1Cl | 774 s |

| SMILES | RP-LC retention time |
| --- | --- |
| O=C1CC(c2nc(-c3ccc4c(c3)OCO4)no2)CN1c1ccc2c(c1)OCCO2 (stereo not given) | 895 s |
| Cc1c(Cl)cccc1Nc1c(-c2ccc(O)cc2)nc2ncccn12 | 705 s |
| COc1cccc(Oc2ncc(-c3cccc(C(=O)NC4CC4)c3)cn2)c1 | 797 s |
| COc1ccc(-c2ncc3c(n2)CCN(C(=O)c2ccc(C(F)(F)F)cc2)C3)cc1 | 1010 s |
| CCc1noc(NC(C)=O)c1-c1ccc(C)c(S(=O)(=O)NCc2ccccc2)c1 | 836 s |
| CCOC(=O)c1ncn(Cc2ccc3c(c2)OCO3)c1N | 609 s |
| CCCCN(C)C(=O)Cn1nc(C)c2c(C)n(-c3ccccc3)nc2c1=O | 787 s |
| CCN1CCN(CCNC(=O)C2CCN(Cc3cn(C)c4ccc(Cl)cc34)CC2)CC1 | 561 s |
| CCn1cc(C(CNC(=O)Nc2ccc(OC)cc2)c2cccnc2)c2ccccc21 (stereo not given) | 700 s |
| CCC(=O)N(C1CCOCC1)C1CCN(S(=O)(=O)c2ccc(F)c(Cl)c2)CC1 | 884 s |
| COc1cccc(OC)c1CN1CC(n2cnnc2-c2cccnc2)C1 | 548 s |
| Cn1cccc1C(=O)N1CC(Oc2ccc(-c3nc(-c4ccccc4)no3)cc2)C1 | 1170 s |
| CCCCC(=O)N(CCC)CCC | 965 s |
| COc1cc(-c2noc(CN3C(=O)C(C)Oc4ccccc43)n2)cc(OC)c1OC (stereo not given) | 980 s |
| Cc1[nH]c2ccccc2c1C(=O)C(=O)N1CC2CC(C1)c1cccc(=O)n1C2 (stereo not given) | 612 s |
| Cc1ccsc1C(=O)NCC12CCCC=C1N(C)C(=O)CC2 (stereo not given) | 785 s |
| CCN(CC)c1nc(-c2ccc(C(C)(C)C)cc2)nc2ccccc12 | 943 s |
| CCOc1ccccc1OCc1nn2c(-c3ccccn3)nnc2s1 | 800 s |
| COC(=O)c1nc(NC(=O)Cn2nc3c(cc2=O)CCCCC3)sc1C | 778 s |
| O=C(Nc1ccc2c(c1)OCO2)C1CCCN(c2ccnc(-c3ccc(F)cc3)n2)C1 (stereo not given) | 674 s |
| O=C(Nc1cccc(C(F)(F)F)c1)N1CCN(c2cnn3c(C4CC4)nnc3c2)CC1 | 629 s |
| O=C(NCc1csc(-c2ccccc2)n1)C1CCN(S(=O)(=O)c2cccs2)CC1 | 872 s |
| COC(=O)c1ccc(-c2nc3cnccn3c2Nc2cc(C)cc(C)c2)cc1 | 978 s |

| SMILES | RP-LC retention time |
| --- | --- |
| CCc1cccc(C)c1NC(=O)Cn1cnc2nc(N3CCCC(C(=O)NC4CC4)C3)sc2c1=O (stereo not given) | 694 s |
| CC(C)C(=O)N1CCc2cc(-c3ccc(C(=O)NCCCN4CCN(C)CC4)cc3)ccc21 | 607 s |
| COc1ccc(-n2nc(C(N)=O)c(=O)cc2OC)cc1 | 581 s |
| CC(C)NC(=O)CCc1c(-c2ccc(Cl)cc2)nc2ccccn12 | 622 s |
| CCc1cccc(NC(=O)C2CCN(S(=O)(=O)c3ccc4c(c3)sc(=O)n4CC)CC2)c1 | 932 s |
| COCCN(Cc1ccc(Cl)cc1)Cc1cc(=O)n2cc(C)ccc2n1 | 662 s |
| CCOc1ccc(N2CC(c3nnc(NC(=O)c4ccc(Cl)cc4)o3)CC2=O)cc1 (stereo not given) | 803 s |
| Cc1ccc(C(=O)NCc2[nH]nc3ccccc23)cc1C | 788 s |
| CSc1ccc(-c2noc(Cn3ncn4nc(-c5cc(C)ccc5C)cc4c3=O)n2)cc1 | 1260 s |
| O=C(c1ccccc1F)N1CCC(CNC(=O)C2(c3ccccc3)CCOCC2)CC1 | 706 s |
| COc1cccc(CNC2=NCCNC23CCN(S(=O)(=O)c2ccc(F)cc2)CC3)c1 | 695 s |
| O=C(NCCn1c(-c2ccccc2)nc2cccnc21)Nc1ccccc1 | 674 s |
| COc1ccc2[nH]cc(CCNC(=O)Cn3nc(C)c4c(C)onc4c3=O)c2c1 | 698 s |
| Cc1ccc(C)c(CN2CCCN(c3ncccc3-c3nc(C(C)C)no3)CC2)c1 | 790 s |
| CCCOc1nc2ccccc2nc1N1CCCC(C(=O)Nc2ccc(NC(C)=O)cc2)C1 (stereo not given) | 968 s |
| O=C(c1cnc[nH]1)N1CC(F)(F)C[C@H]1c1nc(C2CC2)no1 | 630 s |
| COCCNC(=O)NC1CCN(C2=NS(=O)(=O)C(c3ccc(C)cc3)=C2C)CC1 | 1140 s |
| COc1ccc2[nH]cc(CCNC(=O)c3cccc(NC(=O)c4nnc(CC(C)C)s4)c3)c2c1 | 938 s |
| Cn1c(N2CCC(C(=O)N3CCN(c4ccccn4)CC3)CC2)cc(=O)n(C)c1=O | 578 s |
| COc1ccc(OC)c(CN2CCn3c(nn(CC4CC4)c3=O)C2)c1 | 620 s |
| O=C(NCCc1csc(C2CCCN(C(=O)C3CC3)C2)n1)C1CC1 (stereo not given) | 662 s |
